We go through six compounds from BindingDB's records for doi:10.1021/jm991151j (Smithkline Beecham Pharmaceuticals, 2000).

pKi: −log10 of the molar value. Where a name gives a salt, the structure may show the parent alone.

Assay [1] addresses T1, 5-hydroxytryptamine receptor 1F (Homo sapiens, UniProt P30939).
T1 sequence (P30939 whole entry): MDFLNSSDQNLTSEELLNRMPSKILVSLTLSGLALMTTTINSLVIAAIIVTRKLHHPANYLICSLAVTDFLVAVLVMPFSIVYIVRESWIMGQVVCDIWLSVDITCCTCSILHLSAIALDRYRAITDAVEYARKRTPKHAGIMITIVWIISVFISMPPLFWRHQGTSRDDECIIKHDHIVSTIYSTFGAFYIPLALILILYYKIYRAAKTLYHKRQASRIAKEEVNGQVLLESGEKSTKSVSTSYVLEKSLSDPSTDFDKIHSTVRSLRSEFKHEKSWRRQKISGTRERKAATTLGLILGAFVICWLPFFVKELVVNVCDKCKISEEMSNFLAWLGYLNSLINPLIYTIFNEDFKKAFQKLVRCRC

The target of assay [2] is T2, Alpha-1B adrenergic receptor (Homo sapiens, UniProt P35368).
T2 sequence (P35368 whole entry): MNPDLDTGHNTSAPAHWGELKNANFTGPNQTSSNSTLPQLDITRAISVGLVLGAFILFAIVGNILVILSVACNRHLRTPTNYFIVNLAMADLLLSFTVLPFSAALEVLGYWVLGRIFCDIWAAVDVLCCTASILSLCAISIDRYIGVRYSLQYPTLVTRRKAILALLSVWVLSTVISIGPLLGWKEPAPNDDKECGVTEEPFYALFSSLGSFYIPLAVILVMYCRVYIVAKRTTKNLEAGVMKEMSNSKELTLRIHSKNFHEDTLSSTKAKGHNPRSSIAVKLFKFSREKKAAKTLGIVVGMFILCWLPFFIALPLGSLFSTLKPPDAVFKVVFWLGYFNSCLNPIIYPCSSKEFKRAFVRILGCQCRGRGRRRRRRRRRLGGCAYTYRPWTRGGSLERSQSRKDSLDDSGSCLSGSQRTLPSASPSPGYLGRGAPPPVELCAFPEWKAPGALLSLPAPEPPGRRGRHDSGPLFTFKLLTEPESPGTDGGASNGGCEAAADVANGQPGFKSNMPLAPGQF

The target in assay [3] is 5-hydroxytryptamine receptor 4 (Homo sapiens, UniProt Q13639).
Chain of 5-hydroxytryptamine receptor 4 (Q13639 whole entry): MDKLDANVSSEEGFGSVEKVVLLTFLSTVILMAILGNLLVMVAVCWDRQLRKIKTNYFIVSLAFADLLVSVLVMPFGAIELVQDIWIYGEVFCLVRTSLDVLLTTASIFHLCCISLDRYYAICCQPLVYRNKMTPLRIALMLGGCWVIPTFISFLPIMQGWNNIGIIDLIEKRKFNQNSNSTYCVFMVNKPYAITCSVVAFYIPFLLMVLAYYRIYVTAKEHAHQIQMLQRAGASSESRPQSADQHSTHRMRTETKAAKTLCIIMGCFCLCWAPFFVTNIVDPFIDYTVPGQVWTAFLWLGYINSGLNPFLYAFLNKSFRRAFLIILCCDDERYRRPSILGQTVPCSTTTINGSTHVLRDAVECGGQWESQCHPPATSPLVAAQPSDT
For assay [4], the target named is 5-hydroxytryptamine receptor 6 (Homo sapiens, UniProt P50406).
Chain of 5-hydroxytryptamine receptor 6 (P50406 whole entry): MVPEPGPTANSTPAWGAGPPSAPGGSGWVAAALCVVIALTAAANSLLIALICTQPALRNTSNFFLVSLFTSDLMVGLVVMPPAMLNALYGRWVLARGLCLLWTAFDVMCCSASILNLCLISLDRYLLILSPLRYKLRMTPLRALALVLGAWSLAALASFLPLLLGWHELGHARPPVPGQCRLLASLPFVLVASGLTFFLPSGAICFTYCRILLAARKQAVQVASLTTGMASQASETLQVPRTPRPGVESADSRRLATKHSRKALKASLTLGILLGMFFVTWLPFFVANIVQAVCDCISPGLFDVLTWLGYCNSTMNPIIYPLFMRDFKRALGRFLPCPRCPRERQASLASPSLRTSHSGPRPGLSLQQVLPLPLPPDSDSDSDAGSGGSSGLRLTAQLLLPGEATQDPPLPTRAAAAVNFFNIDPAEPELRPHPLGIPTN
The target in assay [5] is 5-hydroxytryptamine receptor 1E (Homo sapiens, UniProt P28566).
Chain of 5-hydroxytryptamine receptor 1E (P28566 whole entry): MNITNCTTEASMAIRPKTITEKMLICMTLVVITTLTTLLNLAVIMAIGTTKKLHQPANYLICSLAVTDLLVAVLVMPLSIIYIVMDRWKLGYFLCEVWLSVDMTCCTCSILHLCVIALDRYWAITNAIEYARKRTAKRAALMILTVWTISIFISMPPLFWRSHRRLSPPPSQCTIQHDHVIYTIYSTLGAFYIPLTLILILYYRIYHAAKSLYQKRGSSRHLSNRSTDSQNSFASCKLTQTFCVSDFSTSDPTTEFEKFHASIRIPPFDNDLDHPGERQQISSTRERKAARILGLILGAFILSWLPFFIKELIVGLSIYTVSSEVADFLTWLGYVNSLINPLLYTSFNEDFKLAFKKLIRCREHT
The target of assay [6] is 5-hydroxytryptamine receptor 2B (Homo sapiens, UniProt P41595).
Chain of 5-hydroxytryptamine receptor 2B (P41595 whole entry): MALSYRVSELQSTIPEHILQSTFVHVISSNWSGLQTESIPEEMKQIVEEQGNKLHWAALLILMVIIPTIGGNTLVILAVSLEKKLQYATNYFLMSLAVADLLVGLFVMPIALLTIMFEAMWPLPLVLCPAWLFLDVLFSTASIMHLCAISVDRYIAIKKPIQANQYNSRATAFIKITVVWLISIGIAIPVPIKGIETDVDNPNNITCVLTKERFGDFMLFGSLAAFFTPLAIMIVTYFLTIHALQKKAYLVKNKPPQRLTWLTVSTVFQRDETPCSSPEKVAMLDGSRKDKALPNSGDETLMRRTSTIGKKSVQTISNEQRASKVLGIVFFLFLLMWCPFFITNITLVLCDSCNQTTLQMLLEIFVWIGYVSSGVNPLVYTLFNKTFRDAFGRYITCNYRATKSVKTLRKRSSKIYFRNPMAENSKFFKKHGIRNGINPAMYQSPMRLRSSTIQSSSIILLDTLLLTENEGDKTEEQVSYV
For assay [7], the target named is T3, 5-hydroxytryptamine receptor 2C (Homo sapiens, UniProt P28335).
T3 sequence (P28335 whole entry): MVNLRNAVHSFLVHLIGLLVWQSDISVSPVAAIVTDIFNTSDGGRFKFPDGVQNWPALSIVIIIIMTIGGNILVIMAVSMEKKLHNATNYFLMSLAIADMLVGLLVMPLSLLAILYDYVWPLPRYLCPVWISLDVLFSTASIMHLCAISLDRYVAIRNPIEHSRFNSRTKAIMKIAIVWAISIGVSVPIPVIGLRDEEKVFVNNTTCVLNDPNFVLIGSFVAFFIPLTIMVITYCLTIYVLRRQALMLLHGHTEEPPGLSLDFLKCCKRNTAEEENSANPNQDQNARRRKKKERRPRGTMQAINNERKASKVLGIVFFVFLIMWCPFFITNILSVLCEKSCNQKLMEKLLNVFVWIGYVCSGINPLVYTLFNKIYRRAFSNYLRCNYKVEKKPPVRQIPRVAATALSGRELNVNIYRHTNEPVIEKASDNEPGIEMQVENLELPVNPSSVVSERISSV

A word on the pKi: it is the Ki on a negative log10 scale, so that one unit is a factor of ten. `CC1CCN(CC[C@H]2CCCN2S(=O)(=O)c2cccc(O)c2)CC1` [(R)-3-(2-(2-(4-methylpiperidin-1-yl)ethyl)pyrrolidine-1-sulfonyl)phenol]: the pKi in assay [1] is 5.50; in assay [2], < 5.00.
For the compound `CC1CCN(CC[C@H]2CCCN2S(=O)(=O)c2ccc(Cl)c(Cl)c2)CC1` [(R)-1-(2-(1-(3,4-Dichloro-benzenesulfonyl)-pyrrolidin-2-yl)-ethyl)-4-methyl piperidine], the negative-log Ki (pKi) in assay [3] and in assay [1] was 5.50 throughout.
Consider `COc1cccc(S(=O)(=O)N2CCC[C@@H]2CCN2CCC(C)CC2)c1` [(R)-1-(2-(1-(3-methoxy-benzenesulfonyl)-pyrrolidin-2-yl)-ethyl-4-methylpiperidine], for which the pKi in assay [4] was < 5.00.
As for `CC1CCN(CC[C@H]2CCCN2S(=O)(=O)c2cccc3ccccc23)CC1` [(R)-4-Methyl-1-(2-(1-(naphthalene-1-sulfonyl)-pyrrolidin-2-yl)-ethyl)-piperidine(10)], the negative logarithm of the Ki (pKi) in assay [1] and in assay [5] was < 5.00 throughout.
On to `Cc1cccc(S(=O)(=O)N2CCC[C@@H]2CCN2CCC(C)CC2)c1` [(R)-4-Methyl-1-(2-(1-toluene-3-sulfonyl)-pyrrolidin-2-yl)-ethyl)-piperidine (Oxalate salt)], for which the negative logarithm of the Ki (pKi) in assay [3] was < 5.00; in assay [1] it was < 5.00; in assay [6] it was 5.60; in assay [5], < 5.00.
Regarding `CC1CCN(CC[C@H]2CCCN2S(=O)(=O)c2cccc(Br)c2)CC1` [(R)-1-(2-(1-(3-bromo-benzenesulfonyl)-pyrrolidin-2-yl)-ethyl)-4-methyl piperidine], the negative logarithm of the Ki (pKi) is 5.20 in assay [3]; 5.30 in assay [1]; 5.80 in assay [6]; 5.60 in assay [5]; 5.30 in assay [7].
